The record followed here is patent US20040024024A1, “Aromatic sulfone hydroxamates and their use as protease inhibitors” (priority 2001, published 2004).

By IC50 is commonly meant the concentration that gives 50% inhibition.

Assay in all cases: In vitro MMP inhibition, IC50 determination (fluorogenic substrate I)
Format in all cases: biochemical
Settings in all cases: value outside parentheses (Ki in parenthesis)

One assay addresses T1, Human recombinant MMP-13 (Homo sapiens, UniProt P45452).
T1 construct: made in house; host or cells: baculovirus / insect cells
The gist of the method: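 Fluorescence at 415 nm (excitation 328 nm) reports Gly-Leu cleavage of 4 μM quenched methoxycoumarin peptide substrate I. Human recombinant MMP-13, activated by trypsin or APMA, was incubated at room temperature with varied inhibitor concentrations in pH 7.5 Tris/NaCl/CaCl2 buffer; IC50 derived from reduced fluorescence.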

The target of another assay is T2, Human recombinant MMP-1 (Homo sapiens, UniProt P03956).
T2 construct: made in house; host or cells: MMP-1-transfected HT-1080 cells (spent media)
T2 sequence (P03956 100-469): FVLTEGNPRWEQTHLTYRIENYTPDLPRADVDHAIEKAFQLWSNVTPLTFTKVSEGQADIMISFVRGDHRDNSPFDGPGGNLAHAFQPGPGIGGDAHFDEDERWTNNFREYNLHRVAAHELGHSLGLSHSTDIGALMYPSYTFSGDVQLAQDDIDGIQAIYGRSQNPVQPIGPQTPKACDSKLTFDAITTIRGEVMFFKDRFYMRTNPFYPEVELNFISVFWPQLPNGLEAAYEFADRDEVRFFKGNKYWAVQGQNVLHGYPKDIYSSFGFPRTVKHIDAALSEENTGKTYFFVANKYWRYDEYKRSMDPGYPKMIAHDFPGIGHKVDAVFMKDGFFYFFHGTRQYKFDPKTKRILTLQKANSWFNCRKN
The gist of the method:
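APMA- or trypsin-activated enzyme, purified from spent media of transfected HT-1080 cells, incubated at room temperature with 4 μM MCA-Pro-Leu-Gly-Leu-Dpa-Ala-Arg-NH2 and graded inhibitor in Tris buffer pH 7.5 (10 mM CaCl2, 0.05% Brij). Cleavage read by fluorescence (ex 328/em 415 nm); IC50 from fluorescence reduction versus inhibitor concentration.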

The target of another assay is T3, Human recombinant MMP-9 (Homo sapiens, UniProt P14780).
T3 construct: made in house; host or cells: MMP-9-transfected HT1080 cells (spent media)
The procedure, abridged: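 MMP-9 proenzyme purified from transfected HT1080 cell media, activated with APMA or trypsin. Compound dilutions in pH 7.5 Tris/NaCl/CaCl2 buffer with 0.05% polyoxyethylene 23 lauryl ether, incubated at room temperature with 4 μM MCA/Dpa substrate I. IC50 from fluorescence loss (ex 328, em 415 nm) versus inhibitor concentration.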

Another assay deals with T4, Human recombinant MMP-2 (Homo sapiens, UniProt P08253).
T4 construct: made in house; host or cells: MMP-2-transfected p2AHT2 cells
T4 sequence (P08253 110-660): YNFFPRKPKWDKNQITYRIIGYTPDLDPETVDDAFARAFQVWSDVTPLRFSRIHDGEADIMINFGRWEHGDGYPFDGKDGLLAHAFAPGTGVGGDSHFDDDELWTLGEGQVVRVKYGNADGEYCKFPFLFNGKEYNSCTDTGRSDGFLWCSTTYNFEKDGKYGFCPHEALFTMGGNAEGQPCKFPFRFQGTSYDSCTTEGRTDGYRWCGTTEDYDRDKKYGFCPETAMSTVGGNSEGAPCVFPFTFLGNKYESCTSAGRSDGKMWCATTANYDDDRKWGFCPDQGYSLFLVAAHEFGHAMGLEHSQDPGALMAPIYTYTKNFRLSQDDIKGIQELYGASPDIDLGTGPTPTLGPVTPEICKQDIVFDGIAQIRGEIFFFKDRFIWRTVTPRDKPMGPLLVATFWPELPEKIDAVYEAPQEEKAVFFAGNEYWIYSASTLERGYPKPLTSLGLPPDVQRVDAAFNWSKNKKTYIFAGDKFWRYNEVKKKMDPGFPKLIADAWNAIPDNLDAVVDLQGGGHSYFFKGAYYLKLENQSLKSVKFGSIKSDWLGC
The procedure, abridged: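 APMA- or trypsin-activated recombinant MMP-2 was incubated at room temperature with serial inhibitor dilutions in Tris buffer pH 7.5 (100 mM NaCl, 10 mM CaCl2, 0.05% Brij), with DMSO from 1% stocks, and 4 μM substrate I. Cleavage was read by fluorescence at 328/415 nm; IC50 was taken from the loss of fluorescence versus inhibitor concentration.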

Another assay deals with T5, Human recombinant MMP-14 (Homo sapiens, UniProt P50281).
T5 construct: The catalytic domain enzyme was expressed in E. coli inclusion bodies, solubilized in urea; made in house
The procedure, abridged: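 Catalytic-domain MMP-14, expressed in E. coli and refolded, activated with APMA or trypsin; compounds incubated at room temperature with 4 μM fluorogenic substrate I (MCA-PLGL-Dpa-AR-NH2) in Tris/NaCl/CaCl2 buffer, pH 7.5. Fluorescence at ex 328/em 415 nm; IC50 from loss of fluorescence versus inhibitor concentration.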

Some results are limits rather than exact numbers.

T3 sequence (P14780 107-707 limits assumed): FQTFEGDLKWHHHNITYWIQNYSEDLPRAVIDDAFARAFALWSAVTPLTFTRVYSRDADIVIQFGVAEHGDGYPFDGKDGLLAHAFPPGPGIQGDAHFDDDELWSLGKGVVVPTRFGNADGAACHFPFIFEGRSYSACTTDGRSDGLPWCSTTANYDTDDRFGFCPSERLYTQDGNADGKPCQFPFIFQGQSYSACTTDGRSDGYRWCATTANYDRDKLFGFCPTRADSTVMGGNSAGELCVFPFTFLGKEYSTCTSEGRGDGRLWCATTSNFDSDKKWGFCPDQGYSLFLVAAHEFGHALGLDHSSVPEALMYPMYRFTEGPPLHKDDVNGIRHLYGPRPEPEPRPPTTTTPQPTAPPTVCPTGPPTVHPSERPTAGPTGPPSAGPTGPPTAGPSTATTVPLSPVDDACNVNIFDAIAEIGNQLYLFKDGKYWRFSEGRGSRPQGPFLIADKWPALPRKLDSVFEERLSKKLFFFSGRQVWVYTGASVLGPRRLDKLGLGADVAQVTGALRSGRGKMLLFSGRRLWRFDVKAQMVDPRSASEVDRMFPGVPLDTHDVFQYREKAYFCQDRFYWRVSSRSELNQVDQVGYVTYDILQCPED

With `O=C(NCCCOc1ccc(S(=O)(=O)C2(C(=O)NO)CCOCC2)cc1)c1cnc2ccccc2c1` [Example 390], the IC50 was 2.7 nM on Human recombinant MMP-13; greater than 10000 nM on Human recombinant MMP-1; greater than 10000 nM on Human recombinant MMP-9; 907 nM at Human recombinant MMP-2; greater than 10000 nM at Human recombinant MMP-14.
On to `COc1ccc(C(=O)NCC(C)(C)COc2ccc(S(=O)(=O)C3(C(=O)NO)CCOCC3)cc2)cc1` [Example 392], for which the IC50 was 40 nM on Human recombinant MMP-13; greater than 10000 nM on Human recombinant MMP-1; greater than 10000 nM at Human recombinant MMP-9; greater than 10000 nM on Human recombinant MMP-2; greater than 10000 nM on Human recombinant MMP-14.
Take `CCCC(C)C(=O)NCCCOc1ccc(S(=O)(=O)C2(C(=O)NO)CCOCC2)cc1` (stereo not shown) [Example 403]: the IC50 on Human recombinant MMP-13 was 5.2 nM; at Human recombinant MMP-1, greater than 10000 nM; on Human recombinant MMP-9 it was greater than 10000 nM; at Human recombinant MMP-2 it was 454 nM; on Human recombinant MMP-14, greater than 10000 nM.
As for `O=C(NCCCOc1ccc(S(=O)(=O)C2(C(=O)NO)CCOCC2)cc1)C12CC3CC(CC(C3)C1)C2` [Example 405], the IC50 on Human recombinant MMP-13 was 1.9 nM; at Human recombinant MMP-1 it was greater than 10000 nM; on Human recombinant MMP-9 it was greater than 10000 nM; at Human recombinant MMP-2, 2350 nM; on Human recombinant MMP-14, greater than 10000 nM.
For `CN(C)c1ccc(C(=O)NCCCOc2ccc(S(=O)(=O)C3(C(=O)NO)CCN(C4CC4)CC3)cc2)cc1` [Example 406], the IC50 at Human recombinant MMP-13 was 4 nM; at Human recombinant MMP-1, greater than 10000 nM; at Human recombinant MMP-9, greater than 10000 nM; on Human recombinant MMP-2 it was 2200 nM; at Human recombinant MMP-14, greater than 10000 nM.
Regarding `O=C(NO)C1(S(=O)(=O)c2ccc(OCCCSc3nc4ccc(Cl)cc4o3)cc2)CCOCC1` [Example 408], the IC50 was 2.5 nM on Human recombinant MMP-13; greater than 10000 nM on Human recombinant MMP-1; 49 nM on Human recombinant MMP-9; 90 nM at Human recombinant MMP-2; 6810 nM at Human recombinant MMP-14.
Consider `O=C(NO)C1(S(=O)(=O)c2ccc(OCCSc3nc4c(Cl)cc(Cl)cc4o3)cc2)CCOCC1` [Example 409], for which the IC50 at Human recombinant MMP-13 is 1 nM; on Human recombinant MMP-1, greater than 10000 nM; on Human recombinant MMP-9, 160 nM; on Human recombinant MMP-2, 23 nM; at Human recombinant MMP-14 it was 5640 nM.
As to `O=C(NO)C1(S(=O)(=O)c2ccc(OCCSc3nc4ccccc4o3)cc2)CCOCC1` [Example 410], the IC50 came out at 1.1 nM on Human recombinant MMP-13; 4700 nM at Human recombinant MMP-1; 202 nM at Human recombinant MMP-9; 12 nM on Human recombinant MMP-2; 515 nM at Human recombinant MMP-14.
With `Cc1ccc2c(c1)CCCN2CCCCCOc1ccc(S(=O)(=O)C2(C(=O)NO)CCOCC2)cc1` [Example 415], the IC50 was 15 nM on Human recombinant MMP-13; greater than 10000 nM at Human recombinant MMP-1; 1780 nM at Human recombinant MMP-9; 51 nM on Human recombinant MMP-2; greater than 10000 nM at Human recombinant MMP-14.
As to `COc1ccc(NC(=O)NCCOc2ccc(S(=O)(=O)C3(C(=O)NO)CCOCC3)cc2)cc1` [Example 418], the IC50 on Human recombinant MMP-13 is 64 nM; at Human recombinant MMP-1, greater than 10000 nM; at Human recombinant MMP-9, greater than 10000 nM; on Human recombinant MMP-2, 1500 nM; on Human recombinant MMP-14, greater than 10000 nM.
Take `COc1ccc(C(=O)N2CCC(COc3ccc(S(=O)(=O)C4(C(=O)NO)CCOCC4)cc3)CC2)cc1` [Example 420]: the IC50 on Human recombinant MMP-13 was 4 nM; on Human recombinant MMP-1, greater than 10000 nM; at Human recombinant MMP-9, greater than 10000 nM; on Human recombinant MMP-2, 67 nM; at Human recombinant MMP-14 it was greater than 10000 nM.
As to `CC(C)(COc1ccc(S(=O)(=O)C2(C(=O)NO)CCOCC2)cc1)CSc1ccccc1` [Example 437], the IC50 on Human recombinant MMP-13 is 90 nM; at Human recombinant MMP-1, greater than 10000 nM; at Human recombinant MMP-9, greater than 10000 nM; on Human recombinant MMP-2 it was greater than 10000 nM; at Human recombinant MMP-14, greater than 10000 nM.
In the case of `CC(C)(COc1ccc(S(=O)(=O)C2(C(=O)NO)CCOCC2)cc1)CS(=O)(=O)Cc1ccccc1` [Example 438], the IC50 at Human recombinant MMP-13 was 11 nM; at Human recombinant MMP-1, greater than 10000 nM; at Human recombinant MMP-9 it was 3800 nM; on Human recombinant MMP-2, 505 nM; at Human recombinant MMP-14, greater than 10000 nM.
With `O=C(NO)C1(S(=O)(=O)c2ccc(OCCCSCc3ccccc3)cc2)CCOCC1` [Example 439], the IC50 at Human recombinant MMP-13 is 25 nM; on Human recombinant MMP-1 it was greater than 10000 nM; at Human recombinant MMP-9, 6000 nM; on Human recombinant MMP-2, 2000 nM; on Human recombinant MMP-14 it was greater than 10000 nM.
For `CC(C)(COc1ccc(S(=O)(=O)C2(C(=O)NO)CCOCC2)cc1)CS(=O)(=O)Cc1cccc(OC(F)(F)F)c1` [Example 440], the IC50 on Human recombinant MMP-13 is 1 nM; on Human recombinant MMP-1, greater than 10000 nM; at Human recombinant MMP-9, 140 nM; on Human recombinant MMP-2, 4 nM; on Human recombinant MMP-14, 2500 nM.
As to `O=C(NO)C1(S(=O)(=O)c2ccc(OCCCSCc3cccc(OC(F)(F)F)c3)cc2)CCOCC1` [Example 441], the half-inhibitory concentration (IC50) is 2 nM on Human recombinant MMP-13; 9000 nM on Human recombinant MMP-1; 110 nM at Human recombinant MMP-9; 13 nM at Human recombinant MMP-2; 2290 nM on Human recombinant MMP-14.
In the same order, the values of `COc1ccc(OCCCOc2ccc(S(=O)(=O)C3(C(=O)NO)CCN(C4CC4)CC3)cc2)cc1` [Example 442] are 1.8 nM, greater than 10000 nM, 5.4 nM, 6.2 nM and 997 nM.
For the compound `O=C(NO)C1(S(=O)(=O)c2ccc(OCCCOc3cccc(C(F)(F)F)c3)cc2)CCN(C2CC2)CC1` [Example 443], the IC50 is 3.5 nM at Human recombinant MMP-13; greater than 10000 nM at Human recombinant MMP-1; 375 nM at Human recombinant MMP-9; 25 nM on Human recombinant MMP-2; 2430 nM on Human recombinant MMP-14.
For `O=C(NO)C1(S(=O)(=O)c2ccc(OCCCOc3ccc(F)cc3F)cc2)CCOCC1` [Example 445] the same measures were 0.5 nM, 3320 nM, 44 nM, 2.2 nM and 546 nM.
For `COc1ccc(OCCCOc2ccc(S(=O)(=O)C3(C(=O)NO)CCOCC3)cc2)cc1` [Example 447] the same measures were 2 nM, greater than 10000 nM, 12.2 nM, 8.9 nM and 1360 nM.
In the same order, the values of `O=C(NO)C1(S(=O)(=O)c2ccc(OCCCOc3ccc4ccccc4c3)cc2)CCOCC1` [Example 448] are 2.7 nM, 3080 nM, 116 nM, 9 nM and 832 nM.
In the case of `O=C(NO)C1(S(=O)(=O)c2ccc(OCCCO)cc2)CCOCC1` [Example 449], the IC50 came to 7 nM on Human recombinant MMP-13; 1930 nM at Human recombinant MMP-1; 41 nM on Human recombinant MMP-9; 3.7 nM on Human recombinant MMP-2; 58 nM at Human recombinant MMP-14.
Regarding `COc1ccc(OCCCCOc2ccc(S(=O)(=O)C3(C(=O)NO)CCOCC3)cc2)cc1` [Example 450], the IC50 on Human recombinant MMP-13 was 0.9 nM; on Human recombinant MMP-1 it was greater than 10000 nM; at Human recombinant MMP-9, 44 nM; at Human recombinant MMP-2 it was 6.6 nM; on Human recombinant MMP-14, 4940 nM.
